According to article PMC10425983 (ACS Infectious Diseases, 2023):

Experiments:
[1] = system: L. infantum (MHOM/MA(BE)/67/ITMAP263) amastigotes; assay: L. infantum intramacrophage amastigote assay; assay type: cell-based, Leishmania infantum; details: for EC50: Leishmania infantum, 120 h, read-out: L.inf pEC50 (converted); for SI: ratio CC50 μM (PMM)/EC50 μM (L.inf)
[2] = Cytotoxicity toward primary peritoneal mouse macrophages; assay type: cell-based; details: Swiss, mouse, primary peritoneal mouse macrophages (PMM), PMM pCC50, primary mouse macrophages; highest in-test concentration 64 μM
[3] = Rat hepatocyte intrinsic clearance; assay type: in vitro ADME; details: for hepatocyte CLint: rat, rat hepatocytes
[4] = Human liver microsome intrinsic clearance; assay type: in vitro ADME; details: for microsomal CLint at 3 µM: human, human liver microsomes, pH 7.4, HLM clint
[5] = Thermodynamic aqueous solubility; assay type: physicochemical
[6] = Free plasma concentration; assay type: in vitro ADME; details: free fraction in plasma

Row | EC50 [1] | hepatocyte CLint [3] | microsomal CLint at 3 µM [4] | aq. sol. [5] | metabolic stability class in rat hepatocytes ([3]; clearance class in words) | metabolic stability class in human liver microsomes ([4]; clearance class in words) | free plasma concentration [6] | SMILES | SI [1] | CC50 at 5 days [2]
1 | 2 µM |  |  |  |  |  |  | COc1ccc2nc(-c3ccccn3)c(Nc3ccc(F)cc3)n2c1 [Compound 3f, N-(4-Fluorophenyl)-6-methoxy-2-(pyridin-2-yl)imidazo[1,2-a]pyridin-3-amine] | 16 | 31.6 µM
2 | 7.94 µM | 30 µL/min/1e6 cells | 28 µL/min/mg | 62 µM |  |  |  | COc1cccc2nc(-c3ccccn3)c(Nc3ccc(F)cc3)n12 [Compound 3c, N-(4-Fluorophenyl)-5-methoxy-2-(pyridin-2-yl)imidazo[1,2-a]pyridin-3-amine] | 1 | 7.94 µM
3 | 50.1 µM | 140 µL/min/1e6 cells | 130 µL/min/mg | 828 µM |  |  |  | c1ccc(-c2cn3ccccc3n2)nc1 [Compound 11a, 2-(Pyridin-2-yl)imidazo[1,2-a]pyridine] | 1 | > 63.1 µM
4 | 7.94 µM | > 300 µL/min/1e6 cells | 247 µL/min/mg | 0.5 µM |  |  |  | CSc1ccc2nc(-c3ccccn3)c(Nc3ccc(F)cc3)n2c1 [Compound 3n, N-(4-Fluorophenyl)-6-(methylsulfanyl)-2-(pyridin-2-yl)imidazo[1,2-a]pyridin-3-amine] | 1 | 7.94 µM
5 |  |  |  |  | moderate (5.1 ≤ moderate ≤27) | moderate (8.6 ≤ moderate ≤47) |  | Fc1ccc(Nc2c(-c3ccccn3)nc3ccccn23)nc1 [Compound 8, 5-Fluoro-N-[2-(pyridin-2-yl)imidazo[1,2-a]pyridin-3-yl]pyridin-2-amine] |  | 
6 | > 63.1 µM | 64.2 µL/min/1e6 cells | 202 µL/min/mg | 61 µM |  |  |  | Fc1ccc(Nc2c(-c3ccccn3)nc3cnccn23)cc1 [Compound 3j, N-(4-Fluorophenyl)-2-(pyridin-2-yl)imidazo[1,2-a]pyrazin-3-amine] | 1 | > 63.1 µM
7 | 7.94 µM | > 300 µL/min/1e6 cells | > 300 µL/min/mg | 25 µM |  |  |  | Fc1ccc(Nc2c(-c3ccccn3)nc3ccc(F)cn23)cc1 [Compound 3e, 6-Fluoro-N-(4-fluorophenyl)-2-(pyridin-2-yl)imidazo[1,2-a]pyridin-3-amine] | 6 | 50.1 µM
8 | 7.94 µM | 190 µL/min/1e6 cells | 60 µL/min/mg | 26 µM |  |  |  | Fc1ccc(Nc2c(-c3ccccn3)nc3cccc(F)n23)cc1 [Compound 3b, 5-Fluoro-N-(4-fluorophenyl)-2-(pyridin-2-yl)imidazo[1,2-a]pyridin-3-amine] | 8 | > 63.1 µM
9 | 31.6 µM | > 300 µL/min/1e6 cells |  | 5 µM |  |  |  | CS(=O)(=O)c1ccc2nc(-c3ccccn3)c(Nc3ccc(F)cc3)n2c1 [Compound 3o, N-(4-Fluorophenyl)-6-methanesulfonyl-2-(pyridin-2-yl)imidazo[1,2-a]pyridin-3-amine] | 1 | 31.6 µM
10 | 39.8 µM | 101 µL/min/1e6 cells | 220 µL/min/mg | 12 µM |  |  |  | Fc1ccc(Nc2c(-c3ccccn3)nc3c(F)cccn23)cc1 [Compound 3k, 8-Fluoro-N-(4-fluorophenyl)-2-(pyridin-2-yl)imidazo[1,2-a]pyridin-3-amine] | 2 | > 63.1 µM
11 | 15.8 µM | > 300 µL/min/1e6 cells | 212 µL/min/mg | 68 µM |  |  |  | Fc1ccc(Nc2c(-c3ccccn3)nc3cccnn23)cc1 [Compound 3d, N-(4-Fluorophenyl)-2-(pyridin-2-yl)imidazo[1,2-b]pyridazin-3-amine] | 2 | 31.6 µM
12 | 50.1 µM | 64.8 µL/min/1e6 cells | 42.4 µL/min/mg | 180 µM |  |  |  | Fc1ccc(Nc2c(-c3ccccn3)nc3ncccn23)cc1 [Compound 3m, N-(4-Fluorophenyl)-2-(pyridin-2-yl)imidazo[1,2-a]pyrimidin-3-amine] | 1 | > 63.1 µM
13 | 7.94 µM | > 300 µL/min/1e6 cells | 270 µL/min/mg | 76 µM |  |  |  | Fc1ccc(Nc2c(-c3ccccn3)nc3sccn23)cc1 [Compound 3r, N-(4-Fluorophenyl)-6-(pyridin-2-yl)imidazo[2,1-b][1,3]thiazol-5-amine] | 4 | 31.6 µM
14 | 7.94 µM | 29 µL/min/1e6 cells | 143 µL/min/mg | 2 µM |  |  |  | COc1cccn2c(Nc3ccc(F)cc3)c(-c3ccccn3)nc12 [Compound 3l, N-(4-Fluorophenyl)-8-methoxy-2-(pyridin-2-yl)imidazo[1,2-a]pyridin-3-amine] | 8 | > 63.1 µM
15 | 25.1 µM | 128 µL/min/1e6 cells | 75 µL/min/mg | 3 µM |  |  |  | Fc1ccc(Nc2c(-c3ccccn3)nc3ccc(-c4cnoc4)cn23)cc1 [Compound 3q, N-(4-Fluorophenyl)-6-(1,2-oxazol-4-yl)-2-(pyridin-2-yl)imidazo[1,2-a]pyridin-3-amine] | 3 | > 63.1 µM
16 | 25.1 µM | 146 µL/min/1e6 cells | > 300 µL/min/mg | 0.1 µM |  |  |  | Fc1ccc(Nc2c(-c3ccccn3)nc3cc(F)ccn23)cc1 [Compound 3h, 7-Fluoro-N-(4-fluorophenyl)-2-(pyridin-2-yl)imidazo[1,2-a]pyridin-3-amine] | 3 | > 63.1 µM
17 |  |  |  |  |  |  | 2% | COc1ccc2nc(-c3ccccn3)c(N(C)c3ccc(F)cc3)n2c1 [Compound 4n, N-(4-Fluorophenyl)-6-methoxy-N-methyl-2-(pyridin-2-yl)imidazo[1,2-a]pyridin-3-amine] |  | 
18 | 31.6 µM | 7.1 µL/min/1e6 cells | 120 µL/min/mg | 290 µM |  |  |  | COc1ccn2c(N)c(-c3ccccn3)nc2c1 [Compound 7b, 7-Methoxy-2-(pyridin-2-yl)imidazo[1,2-a]pyridin-3-amine] | 2 | > 63.1 µM
19 | 15.8 µM | 17 µL/min/1e6 cells | > 300 µL/min/mg | 562 µM |  |  |  | COc1ccn2c(Cl)c(-c3ccccn3)nc2c1 [Compound 12, 3-Chloro-7-methoxy-2-(pyridin-2-yl)imidazo[1,2-a]pyridine] | 2 | 31.6 µM
20 | 25.1 µM |  | > 300 µL/min/mg | 723 µM |  |  |  | COc1ccn2cc(-c3ccccn3)nc2c1 [Compound 11b, 7-Methoxy-2-(pyridin-2-yl)imidazo[1,2-a]pyridine] | 3 | > 63.1 µM
21 | 50.1 µM |  |  | 64 µM |  |  |  | Fc1ccc(Nc2c(-c3ccccn3)nc3ccncn23)cc1 [Compound 3g, N-(4-Fluorophenyl)-2-(pyridin-2-yl)imidazo[1,2-c]pyrimidin-3-amine] | 1 | > 63.1 µM
